In article PMC10005104 (Molecules, 2023):
Where “and” joins values, the source holds several entries; their conditions need not be identical. Identical values can stand only once. Counter-ions that a name gives are not always drawn. Like-named read-outs stand apart in the source and are kept apart here. Marks after values point to notes of the source that are not given here.

How the values were obtained:
hMAO B = target: T1, hMAO B (Homo sapiens, UniProt P27338); assay: fluorometric Amplex red MAO assay; assay type: biochemical; details: read-out: hMAO B % inh
T1 construct: purchased Sigma-Aldrich (Steinheim, Germany)
T1 sequence (P27338 1-520): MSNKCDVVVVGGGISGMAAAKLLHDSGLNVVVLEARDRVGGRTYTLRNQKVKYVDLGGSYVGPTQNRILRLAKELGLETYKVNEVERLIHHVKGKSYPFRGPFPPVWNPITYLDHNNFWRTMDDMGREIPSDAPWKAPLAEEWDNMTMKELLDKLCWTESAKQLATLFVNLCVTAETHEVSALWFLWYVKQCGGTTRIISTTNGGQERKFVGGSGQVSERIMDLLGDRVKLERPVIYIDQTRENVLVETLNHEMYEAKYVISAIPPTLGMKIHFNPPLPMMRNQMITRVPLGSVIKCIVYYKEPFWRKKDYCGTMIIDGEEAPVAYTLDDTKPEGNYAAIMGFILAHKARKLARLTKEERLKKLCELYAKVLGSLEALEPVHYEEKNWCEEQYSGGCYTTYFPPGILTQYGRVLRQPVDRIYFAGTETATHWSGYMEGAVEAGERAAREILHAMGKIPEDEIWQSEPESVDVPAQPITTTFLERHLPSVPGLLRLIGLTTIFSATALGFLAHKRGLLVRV
Experimental: The ability to inhibit MAO B was estimated by a fluorescence assay, as previously described.
The enzyme was purchased from Sigma-Aldrich (Steinheim, Germany). Screening was carried out at a concentration of 1 micromolar. Inhibitor activity was measured in the presence of p-tyramine.
Data are expressed as mean values of two independent experiments.

[1] = target: T2, AChE from electrophorus electricus (eeAChE) (Electrophorus electricus, UniProt O42275); assay: modified Ellman colorimetric assay, eeAChE; assay type: biochemical; details: for IC50: three independent experiments, read-out: eeAChE IC50 Mean ± SEM; for inhibition at 10 µM: read-out: eeAChE % inh
T2 construct: purchased Sigma-Aldrich (Steinheim, Germany)
Experimental: All compounds were tested at a concentration of 10 µM in a modified colorimetric method first described by Ellman et al. in the 1960s, using AChE from electrophorus electricus (eeAChE) and BuChE from equine serum (eqBuChE). […]. All results are collected in Table 1. […]. […] No correlation was observed between inhibitory activity and hH3R affinity. The most interesting compounds were among the azepane derivatives. […]. AChE from electrophorus electricus and BuChE from equine serum were purchased from Sigma-Aldrich (Steinheim, Germany). The whole procedure was performed as previously described, using a modified Ellman method in 96-well microplates. Absorbance was measured using an EnSpire multimode microplate reader (PerkinElmer, Waltham, MA, USA) at 412 nm. Initial screening was performed for compounds at a concentration of […]. The percentage of inhibition was calculated by comparison with a blank sample (100% enzyme activity). For compounds showing >70% inhibition of enzyme activity, IC50 values were determined, measuring absorbance at six different inhibitor concentrations. Each concentration was measured in triplicate. IC50 values were calculated using GrapPad Prism 9 software (GraphPad Software, San Diego, CA, USA). Data are expressed as mean ± SEM.

[2] = MTS assay, statements on both cell lines together; assay type: cell-based, human; details: human, HepG2 hepatoma cells and SH-SY5Y neuroblastoma cells; HepG2 48 h, SH-SY5Y 24 h; up to 50 µM; read-out: cell viability at the highest doses tested
human H3 receptor (hH3R) = target: T3, human H3 receptor (hH3R) (Homo sapiens, UniProt Q9Y5N1); assay: [3H]-Nα-methylhistamine radioligand binding assay, HEK293 cell membranes expressing hH3R; details: hH3R Ki Mean [CI 95%], HEK293 cells expressing human H3 receptor; at least three independent repetitions
T3 construct: expressed in transfected cells; host or cells: HEK293
Experimental: The affinity for hH3R was assessed in vitro in radioligand binding assays, using membrane preparations of HEK293 cells stably expressing hH3R, while [^3H]-N^α-methylhistamine was used as a radioligand. The exact procedure was described previously by Kottke et al.. Novel compounds were tested as oxalic acid salts. […]. The activity depended on all three variables, i.e., the presence of an amine group, the chain length (five or six carbons), and the type of substituent in the phenyl ring. With regard to the change in the amine moiety, it can be observed that, regardless of the length of the chain and the type of R substituent, the activity of the derivatives was arranged in the following order: 3-methylpiperidine ≥ piperidine ≥ azepane >> 4-metylpiperidine derivatives. Regarding the length of the carbon chain, compounds bearing the pentylene chain are characterized by a higher binding affinity to the receptor than hexylene derivatives (exception: 10). […]
H3R receptor affinity assays were performed in the radioligand competition assay. Human H3R was stably expressed in HEK293 cells. [^3H]-N^α-Methylhistamine (KD = 3.08 nM) was used as the radioligand. The compounds used in the experiments were dissolved in DMSO. The precise experiment was performed as previously described. Complete curves were obtained for at least seven approximate concentrations, in at least three independent experiments, performed at least in duplicate. Ki values were calculated using the Cheng–Prusoff equation. Results are presented as mean values with confidence intervals (CI) (95%).

MTS assay in HepG2 cells = assay type: cell-based; details: human, HepG2 hepatoma cells; at 50 µM, percentage of control (vehicle-treated cells); read-out: HepG2 Cell Viability (%)
Experimental: (§1) . After the indicated time, the MTS reagent was added directly to the cultured cells for 1 h, and then the absorbance at 490 nm was read. […] The results are presented in Table 2 and Figures S1 and S2 (Supplementary Materials).
(§2) The hepatoma cell line HepG2 (ATCC® HB-8065TM) and SH-SY5Y CRL-2266 neuroblastoma cell line were used to evaluate the toxicity of tested compounds. Tests were conducted as described previously. The CellTiter 96® Aqueous Non-Radioactive Cell Proliferation Assay was purchased from Promega (Madison, WI, USA). […]. […] Each experiment was performed twice, in triplicate.

HepG2 cells = assay: MTS assay in HepG2 cells; assay type: cell-based; details: Homo sapiens, HepG2; MTS assay, 48 h of exposure
Experimental: as §1, §2

[3] = target: T4, BuChE from equine serum (eqBuChE) (Equus caballus, UniProt P81908); assay: biochemical; details: for inhibition at 10 µM: read-out: eqBuChE % inh
T4 construct: BuChE from equine serum (eqBuChE); purchased Sigma-Aldrich (Steinheim, Germany); host or cells: equine serum
Experimental: AChE from electrophorus electricus and BuChE from equine serum were purchased from Sigma-Aldrich (Steinheim, Germany). The whole procedure was performed as previously described, using a modified Ellman method in 96-well microplates. […] Initial screening was performed for compounds at a concentration of […]. The percentage of inhibition was calculated by comparison with a blank sample (100% enzyme activity). […] Each concentration was measured in triplicate. IC50 values were calculated using GrapPad Prism 9 software (GraphPad Software, San Diego, CA, USA). Data are expressed as mean ± SEM.

SH-SY5Y cells = assay: MTS assay in SH-SY5Y cells; assay type: cell-based; details: for SH-SY5Y Cell Viability (%): at 50 µM, percentage of control (vehicle-treated cells)
Experimental: as §1, §2

[4] = MTS assay in SH-SY5Y cells; assay type: cell-based; details: human, SH-SY5Y neuroblastoma cells; at 50 µM, percentage of control (vehicle-treated cells); read-out: SH-SY5Y Cell Viability (%)
Experimental: as §1, §2

hH3R = details: cited from earlier work
[5] = target: T2, AChE from electrophorus electricus (eeAChE); details: at 10 µM; cited from earlier work
[6] = at 1 µM, two independent experiments

T2 sequence (O42275 24-633): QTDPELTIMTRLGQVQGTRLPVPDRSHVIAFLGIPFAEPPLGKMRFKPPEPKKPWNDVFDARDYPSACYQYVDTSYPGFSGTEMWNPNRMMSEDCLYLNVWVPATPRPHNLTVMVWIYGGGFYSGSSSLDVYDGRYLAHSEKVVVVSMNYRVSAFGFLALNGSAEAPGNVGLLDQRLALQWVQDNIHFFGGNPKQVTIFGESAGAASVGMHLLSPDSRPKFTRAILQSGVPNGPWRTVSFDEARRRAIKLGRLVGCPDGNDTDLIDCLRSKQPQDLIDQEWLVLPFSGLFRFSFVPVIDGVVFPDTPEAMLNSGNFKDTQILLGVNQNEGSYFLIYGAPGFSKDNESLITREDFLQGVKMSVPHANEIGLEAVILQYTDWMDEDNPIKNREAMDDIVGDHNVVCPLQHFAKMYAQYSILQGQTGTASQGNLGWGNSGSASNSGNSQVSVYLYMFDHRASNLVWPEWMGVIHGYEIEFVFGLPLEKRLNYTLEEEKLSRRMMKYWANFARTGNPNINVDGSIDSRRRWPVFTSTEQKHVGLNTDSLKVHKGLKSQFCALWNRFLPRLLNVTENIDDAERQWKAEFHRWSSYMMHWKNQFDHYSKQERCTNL
T3 sequence (Q9Y5N1 whole entry): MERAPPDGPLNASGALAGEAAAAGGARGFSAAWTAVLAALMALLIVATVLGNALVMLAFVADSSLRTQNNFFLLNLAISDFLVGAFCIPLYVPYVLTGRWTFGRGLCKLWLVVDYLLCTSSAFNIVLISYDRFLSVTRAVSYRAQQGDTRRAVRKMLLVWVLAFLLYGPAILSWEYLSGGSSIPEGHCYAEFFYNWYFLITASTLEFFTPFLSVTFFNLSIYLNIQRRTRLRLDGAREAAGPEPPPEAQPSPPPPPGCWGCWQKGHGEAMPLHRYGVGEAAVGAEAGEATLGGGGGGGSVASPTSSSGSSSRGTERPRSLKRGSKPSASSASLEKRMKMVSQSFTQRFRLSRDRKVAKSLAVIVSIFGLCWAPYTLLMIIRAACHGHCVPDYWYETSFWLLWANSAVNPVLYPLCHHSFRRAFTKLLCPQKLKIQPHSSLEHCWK
T4 sequence (P81908 whole entry): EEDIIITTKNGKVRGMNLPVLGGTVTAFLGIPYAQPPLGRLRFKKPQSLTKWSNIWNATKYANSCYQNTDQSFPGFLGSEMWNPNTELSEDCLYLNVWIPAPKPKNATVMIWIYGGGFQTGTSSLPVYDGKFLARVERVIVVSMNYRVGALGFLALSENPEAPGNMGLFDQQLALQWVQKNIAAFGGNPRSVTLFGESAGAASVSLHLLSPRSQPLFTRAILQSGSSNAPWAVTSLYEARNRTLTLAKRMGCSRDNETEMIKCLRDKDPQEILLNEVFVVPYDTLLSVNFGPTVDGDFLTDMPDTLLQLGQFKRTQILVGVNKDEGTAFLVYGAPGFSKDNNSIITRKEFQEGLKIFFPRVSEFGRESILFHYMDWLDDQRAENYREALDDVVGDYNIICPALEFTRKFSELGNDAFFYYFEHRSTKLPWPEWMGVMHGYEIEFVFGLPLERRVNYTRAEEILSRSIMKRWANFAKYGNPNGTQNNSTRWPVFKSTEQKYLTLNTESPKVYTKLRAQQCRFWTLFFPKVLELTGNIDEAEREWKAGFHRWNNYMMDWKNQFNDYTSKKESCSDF

Row | Compound | inhibition at 1 µM (hMAO B; [6]) | IC50 [1] | viability at 50 µM [2] | Ki (human H3 receptor (hH3R)) | viability at 48 h, 50 µM (MTS assay in HepG2 cells) | IC50 (HepG2 cells) | inhibition at 10 µM [3] | inhibition at 10 µM [1] | also measured
1 | CC(=O)c1ccc(OCCCCCCN2CCCC(C)C2)cc1.O=C(O)C(=O)O (stereo not shown) [Compound 7, 1-(4-((6-(3-Methylpiperidin-1-yl)hexyl)oxy)phenyl)ethan-1-one hydrogen oxalate] | 0% | 1750 ± 50 nM | > 50% | 72 nM | 72.4 ± 4.54% | 148000 nM | 18% |  | SH-SY5Y Cell Viability (%) (SH-SY5Y cells): No toxic effect
2 | CC(=O)c1ccc(OCCCCCN2CCC(C)CC2)cc1 [Compound 10, 1-(4-((5-(4-Methylpiperidin-1-yl)pentyl)oxy)phenyl)ethan-1-one hydrogen oxalate] | 0% |  |  | 120 nM |  |  | 43% | 60% | 
3 | CC(=O)c1ccc(OCCCCCN2CCCC(C)C2)cc1 (stereo not shown) [Compound 6, 1-(4-((5-(3-Methylpiperidin-1-yl)pentyl)oxy)phenyl)ethan-1-one hydrogen oxalate] | 10% | 3060 ± 100 nM | > 50% | < 50 nM and 26 nM | 74.3 ± 5.58% | 120000 nM | 14% |  | viability at 24 h, 50 µM [4]: 86.2 ± 2.2%; IC50 (SH-SY5Y cells; Homo sapiens, SH-SY5Y, MTS assay, 24 h of exposure): 149000 nM
4 | O=c1c2ccccc2oc2ccc(OCCCCCN3CCCCCC3)cc12 [IV] |  |  |  |  |  |  |  |  | Ki (hH3R): 170 nM
5 | C#CCN[C@@H]1CCc2ccccc21 [rasagiline, reference compound] |  |  |  |  |  |  |  |  | inhibition at 1 µM (hMAO B): 100%
6 | CCC(=O)c1ccc(OCCCCCN2CCCCC2)cc1 [Compound 4, 1-(4-((5-(Piperidin-1-yl)pentyl)oxy)phenyl)propan-1-one hydrogen oxalate] | 16% |  |  | < 50 nM and 24 nM |  |  | 32% | 49% | 
7 | CC(=O)c1ccc(OCCCCCCN2CCC(C)CC2)cc1.O=C(O)C(=O)O [Compound 11, 1-(4-((6-(4-Methylpiperidin-1-yl)hexyl)oxy)phenyl)ethan-1-one hydrogen oxalate] | 0% | 2650 ± 110 nM | > 50% | 106 nM | 77.5 ± 0.94% | 223000 nM | 49% |  | SH-SY5Y Cell Viability (%) (SH-SY5Y cells): No toxic effect
8 | CC(=O)c1ccc(OCCCCCCN2CCCCCC2)cc1 [Compound 15, 1-(4-((6-(Azepan-1-yl)hexyl)oxy)phenyl)ethan-1-one hydrogen oxalate] | 6% |  |  | 79 nM |  |  | 68% | 67% | 
9 | Clc1ccc(CCCOCCCN2CCCCC2)cc1 [pitolisant] |  |  |  |  |  |  |  |  | eeAChE % inh [5]: (3%) ^g
10 | CC(=O)c1ccc(OCCCCCCN2CCCCC2)cc1 [Compound 3, 1-(4-((6-(Piperidin-1-yl)hexyl)oxy)phenyl)ethan-1-one hydrogen oxalate] | 3% |  |  | 75 nM |  |  | 23% | 67% | 
11 | Cc1ccc2oc(-c3ccc(OCCCCCCN4CCCCCC4)cc3)cc(=O)c2c1 [III] |  |  |  |  |  |  |  |  | Ki (hH3R): 160 nM
12 | CCC(=O)c1ccc(OCCCCCCN2CCC(C)CC2)cc1.O=C(O)C(=O)O [Compound 13, 1-(4-((6-(4-Methylpiperidin-1-yl)hexyl)oxy)phenyl)propan-1-one hydrogen oxalate] | 1% | 2560 ± 80 nM | > 50% | 58 nM | 64.7 ± 4.4% | 105000 nM | 65% |  | SH-SY5Y Cell Viability (%) (SH-SY5Y cells): No toxic effect
13 | CC(=O)c1ccc(OCCCCCN2CCCCCC2)cc1 [Compound 14, 1-(4-((5-(Azepan-1-yl)pentyl)oxy)phenyl)ethan-1-one hydrogen oxalate] | 37% |  |  | 52 nM |  |  | 63% | 63% | 
14 | CCC(=O)c1ccc(OCCCCCCN2CCCCC2)cc1.O=C(O)C(=O)O [Compound 5, 1-(4-((6-(Piperidin-1-yl)hexyl)oxy)phenyl)propan-1-one hydrogen oxalate] | 22% | 4790 ± 190 nM | > 50% | < 50 nM and 41 nM | 69.5 ± 2.14% | 158000 nM |  |  | IC50 ([3]; three independent experiments, read-out: eqBuChE IC50 Mean ± SEM): 1350 ± 40 nM; SH-SY5Y Cell Viability (%) (SH-SY5Y cells): No toxic effect
15 | CC(=O)c1ccc(OCCCCCN2CCCCC2)cc1 [Compound 2, 1-(4-((5-(Piperidin-1-yl)pentyl)oxy)phenyl)ethan-1-one hydrogen oxalate] | 2% |  |  | < 50 nM and 34 nM |  |  | 25% | 45% | 
16 | CCC(=O)c1ccc(OCCCCCCN2CCCC(C)C2)cc1 (stereo not shown) [Compound 9, 1-(4-((6-(3-Methylpiperidin-1-yl)hexyl)oxy)phenyl)propan-1-one hydrogen oxalate] | 12% |  |  | < 50 nM and 38 nM |  |  | 66% | 68% | 
